From patent publication US5167949A, “4(3H)-pteridinones, preparation processes and drugs containing them” (Lipha, Lyonnaise Industrielle Pharmaceutique, priority 1989, dated 1992)
Where two headings read alike, the source gives them in different places.

How the values were obtained:
[1] = tested on: passive cutaneous anaphylaxis; assay: passive cutaneous anaphylaxis (PCA) test; type: in vivo; conditions: Rattus norvegicus, rats, dose decreasing by 50% the skin area occupied by the dye
Procedure: The anti-allergic activity was measured in rats by the passive cutaneous anaphylaxis or PCA test described by I. Mota, Life Sciences 1963, 7, 465 and Z. Ovary et al., Proceedings of Society of Experimental Biology and Medicine 1952, 81, 584.
In this test, the skin of rats is sensitized by 4 intradermal injections of a homologous anti-ovalbumin serum diluted 15-fold. On the day following sensitization, the animals receive 1 ml/kg of a 2.5% saline solution of Evans blue and 1 ml/kg of a 2.5% saline solution of ovalbumin simultaneously by intravenous injection. The test compounds are administered before the antigen, the time interval being 5 min by intraperitoneal injection and 10 min by the oral route. Thirty minutes after injection of the ovalbumin/dye mixture, the animals are sacrificed and the intensity of the allergic response is determined by measuring the area of skin coloration. The protection provided by the products of the invention is expressed as an ED50 (dose decreasing by 50% the skin area occupied by the dye). Four rats are used for each dose of product.

PAF-acether = assay: bronchospasm induced in anaesthetized guinea pigs by PAF-acether; type: in vivo; conditions: Cavia porcellus, intravenous, PAF-acether 10 ng/kg/IV
Source text: The compounds described are distinguished, in addition, from known products by their long duration of action and by a capacity for antagonizing the effects of PAF-acether, especially its bronchoconstrictor effects.

in vivo = conditions: read-out: median lethal dose
Procedure: By way of illustration, for the compound described in Example 1, the median lethal doses determined orally on rats and on mice are above 2,000 mg/kg, and the median lethal doses determined intraperitoneally and intravenously on mice are above 1,600 mg/kg.

[2] = ip, intraperitoneal, 5 min before antigen

Compound	ED50 [1, 2]	ED50 ([1]; oral, 10 min before antigen)	other results
O=c1[nH]c(COCc2ccccc2)nc2nccnc12 [Example 11, 2-Benzyloxymethyl-4(3H)-pteridinone]	10 mg/kg	48 mg/kg	–
COCc1nc2nccnc2c(=O)[nH]1 [Example 3, 2-Methoxymethyl-4(3H)-pteridinone]	14 mg/kg	33 mg/kg	–
CCCOCc1nc2nccnc2c(=O)[nH]1 [Example 4, 2-Propoxymethyl-4(3H)-pteridinone]	9 mg/kg	25 mg/kg	–
O=c1[nH]c(COc2ccccc2)nc2nccnc12 [Example 9, 2-Phenoxymethyl-4(3H)-pteridinone]	39 mg/kg	–	–
CC(C)OCc1nc2nccnc2c(=O)[nH]1 [Example 13, 2-Isopropoxymethyl-4(3H)-pteridinone]	14 mg/kg	–	–
COCOCc1nc2nccnc2c(=O)[nH]1 [Example 12, 2-Methoxymethoxymethyl-4(3H)-pteridinone]	18 mg/kg	–	–
CCOCc1nc2nccnc2c(=O)[nH]1 [Example 1, 2-Ethoxymethyl-4(3H)-pteridinone]	7 mg/kg	24 mg/kg	ED50 (PAF-acether): 0.068 mg/kg; LD50 (in vivo; mouse, ip, mice, intraperitoneal): > 1600 mg/kg; LD50 (in vivo; mouse, mice, intravenous): > 1600 mg/kg; LD50 (in vivo; mouse, mice, oral): > 2000 mg/kg; LD50 (in vivo; rat, rats, oral): > 2000 mg/kg
CCOCc1nc2nc(O)cnc2c(=O)[nH]1 [Example 7, 2-Ethoxymethyl-7-hydroxy-4(3H)-pteridinone]	21 mg/kg	–	–
